{"source": "patent US12637718B2", "about": "“Predictive biomarkers for onvansertib treatment” (Cardiff Oncology, Inc., priority 2021, dated 2026)", "key": {"[1]": {"tested_on": "patients with relapsed or refractory acute myeloid leukemia (R/R AML)", "assay": "Phase 1b/2 study (NCT03303339) of onvansertib in combination with decitabine", "type": "in vivo", "details": "oral, days 1 through 5, in combination with decitabine 20 mg/m^2 intravenously", "text": "The terms “complete remission” or “complete recovery” as used herein can refer to the absence of extramedullary disease (e.g., leukemic cell aggregates outside of bone marrow), <5% blasts in the bone marrow, absence of circulating blasts and blasts with Auer rods (e.g., inclusion bodies), and platelets≥100×10^9/L and neutrophils≥1.0×10^9/L. The term “complete remission with incomplete hematologic recovery” can refer to all CR criteria except for residual neutropenia (neutrophils<1.0×10^9/L) or thrombocytopenia (platelets<100×10^9/L). The term “morphologic leukemia free state” (MFLS) can refer to <5% blasts in the bone marrow with no blasts with Auer rods and no extramedullary disease. The terms “partial response” or “partial remission” can refer to the presence of all hematologic criteria of CR, decrease of bone marrow blast percentage to 5% to 25%, and/or decrease of pretreatment bone marrow blast percentage by at least 50%. The term “Bone marrow response” (BMR) can refer to at least 50% decrease in bone marrow blast from baseline. In some embodiments, the term “overall response rate” (ORR) can refer to the combined CR, CRi, MFLS, and PR. In some embodiments a combined CR/CRi value is reported. […]"}, "[2]": {"tested_on": "adult subjects with advanced/metastatic solid tumors", "details": "cited from earlier work"}, "PLK1": {"target": "PLK1 (Homo sapiens, UniProt P53350)", "sequence (P53350 whole entry)": "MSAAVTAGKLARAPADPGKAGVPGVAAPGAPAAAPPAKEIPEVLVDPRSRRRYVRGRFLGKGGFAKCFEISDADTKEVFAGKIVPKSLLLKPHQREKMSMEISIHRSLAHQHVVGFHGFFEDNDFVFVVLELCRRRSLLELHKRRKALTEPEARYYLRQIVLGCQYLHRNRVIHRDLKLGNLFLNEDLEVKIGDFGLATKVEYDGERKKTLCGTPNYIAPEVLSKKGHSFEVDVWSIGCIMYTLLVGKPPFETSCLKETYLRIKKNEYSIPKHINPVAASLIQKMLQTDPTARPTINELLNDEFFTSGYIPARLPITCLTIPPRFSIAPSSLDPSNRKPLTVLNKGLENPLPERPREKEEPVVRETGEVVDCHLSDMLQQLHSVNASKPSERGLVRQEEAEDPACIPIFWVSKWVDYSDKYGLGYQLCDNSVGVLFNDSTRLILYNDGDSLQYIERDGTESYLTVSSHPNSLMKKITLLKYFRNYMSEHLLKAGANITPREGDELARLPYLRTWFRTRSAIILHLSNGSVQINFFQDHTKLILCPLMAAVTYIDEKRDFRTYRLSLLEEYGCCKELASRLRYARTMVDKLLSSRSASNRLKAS", "details": "among a panel of 296 kinases, including other PLK members; cited from earlier work"}, "[3]": {"tested_on": "cell lines, both from solid as well as hematologic tumors", "details": "large number of cell lines; cited from earlier work"}, "cancer cell lines": {"tested_on": "cancer cell lines", "details": "cited from earlier work"}, "xenograft tumor": {"tested_on": "xenograft tumor", "details": "well tolerated doses, oral administration; cited from earlier work"}, "[4]": {"tested_on": "HT29 human colon adenocarcinoma xenografts", "details": "combination with irinotecan compared to each agent alone; cited from earlier work"}, "[5]": {"tested_on": "disseminated model of AML", "details": "combination therapy with cytarabine; cited from earlier work"}, "[6]": {"details": "rodent and nonrodent species; cited from earlier work"}, "[7]": {"details": "in vivo; cited from earlier work"}}}
{"smiles": "CN1CCN(c2ccc(OC(F)(F)F)c(Nc3ncc4c(n3)-c3c(c(C(N)=O)nn3CCO)CC4)c2)CC1", "note": "[onvansertib, 1-(2-hydroxyethyl)-8-{[5-(4-methylpiperazin-1-yl)-2-(trifluoromethoxy)phenyl]amino}-4,5-dihydro-1H-pyrazolo[4,3-h] quinazoline-3-carboxamide]", "values": [{"measurement": "maximum tolerated dose", "setting": "[1]", "result": 60, "unit": "mg/m^2"}, {"measurement": "recommended phase 2 dose", "setting": "[2]; advanced/metastatic solid tumors", "result": 24, "unit": "mg/m^2"}, {"measurement": "primary dose-limiting toxicities", "setting": "[2]; in vivo", "result": "neutropenia and thrombocytopenia"}, {"measurement": "patients with stable disease", "setting": "[2]; of 16 evaluable patients", "result": 5, "unit": "patients"}, {"measurement": "recovery of hematologic toxicities", "setting": "[2]; reversible", "result": "≤ 3", "unit": "weeks"}, {"measurement": "specificity for PLK1", "setting": "PLK1", "result": "high specificity"}, {"measurement": "potency in proliferation assays", "setting": "[3]", "result": "low nanomolar activity"}, {"measurement": "effect on cell cycle", "setting": "cancer cell lines", "result": "potently causes a mitotic cell-cycle arrest followed by apoptosis"}, {"measurement": "xenograft tumor growth", "setting": "xenograft tumor", "result": "inhibits xenograft tumor growth"}, {"measurement": "tumor regression", "setting": "[4]", "result": "enhanced tumor regression"}, {"measurement": "survival of animals", "setting": "[5]", "result": "prolonged survival"}, {"measurement": "oral bioavailability", "setting": "[6]", "result": "good oral bioavailability"}, {"measurement": "half-life", "setting": "[7]", "result": "about 24 hours"}]}
